Experimental data from ChEMBL document CHEMBL2074136, “Citrus juices inhibit the function of human organic anion-transporting polypeptide OATP-B” (Drug Metab Dispos, 2005).

T1: Solute carrier organic anion transporter family member 2B1 (Homo sapiens, UniProt O94956)
T1 sequence (O94956 whole entry): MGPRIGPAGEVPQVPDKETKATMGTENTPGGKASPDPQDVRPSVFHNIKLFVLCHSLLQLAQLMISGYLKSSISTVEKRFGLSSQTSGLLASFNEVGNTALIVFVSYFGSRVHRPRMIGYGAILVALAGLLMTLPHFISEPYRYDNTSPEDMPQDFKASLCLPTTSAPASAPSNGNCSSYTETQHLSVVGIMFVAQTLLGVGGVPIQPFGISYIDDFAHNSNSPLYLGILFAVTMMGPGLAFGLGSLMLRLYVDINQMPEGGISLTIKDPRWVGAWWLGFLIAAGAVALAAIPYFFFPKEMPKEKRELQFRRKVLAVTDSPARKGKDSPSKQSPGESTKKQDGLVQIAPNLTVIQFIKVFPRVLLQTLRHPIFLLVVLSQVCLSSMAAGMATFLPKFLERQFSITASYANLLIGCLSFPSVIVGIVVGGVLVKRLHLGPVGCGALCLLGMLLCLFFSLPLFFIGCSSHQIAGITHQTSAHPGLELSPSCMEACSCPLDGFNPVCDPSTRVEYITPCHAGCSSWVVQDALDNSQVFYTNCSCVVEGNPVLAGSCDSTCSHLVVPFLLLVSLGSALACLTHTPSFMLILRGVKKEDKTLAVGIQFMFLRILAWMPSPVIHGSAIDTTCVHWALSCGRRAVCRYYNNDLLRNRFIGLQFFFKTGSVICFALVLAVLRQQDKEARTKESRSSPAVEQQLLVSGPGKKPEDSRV

T2: OATP2B1 (Homo sapiens, UniProt O94956)
T2 sequence (O94956 whole entry): T1 sequence (O94956 whole entry)

B1: Solute carrier organic anion transporter family member 2B1 (Homo sapiens) (protein)
chain: T1 sequence (O94956 whole entry)

What was measured:
Type in all cases: functional, cell-based
[1] = target: T1, Solute carrier organic anion transporter family member 2B1; experiment: TP_TRANSPORTER: inhibition of glibenclamide uptake (glibenclamide: 10nM) in OATP2B1-expressing HEK293 cells; parameters: scale not given: the % may be the effect or the level left
[2] = target: T2, OATP2B1; experiment: (§1) TP_TRANSPORTER: inhibition of Estrone-3-sulfate uptake (Estrone-3-sulfate: 10nM) in OATP2B1-expressing HEK293 cells; parameters: scale not given: the % may be the effect or the level left; conditions: HEK293 cells expressing OATP2B1, probe Estrone-3-sulfate (10 nM)
[3] = target: T1, Solute carrier organic anion transporter family member 2B1; experiment: TP_TRANSPORTER: uptake of DHEAS at a concentration of 17.4nM in OATP2B1-expressing HEK293 cells
[4] = target: T1, Solute carrier organic anion transporter family member 2B1; experiment: as §1; parameters: scale not given: the % may be the effect or the level left; conditions: hek293
[5] = substrate: COc1ccc(Cl)cc1C(=O)NCCc1ccc(S(=O)(=O)NC(=O)NC2CCCCC2)cc1; experiment: (§2) TP_TRANSPORTER: uptake in OATP2B1-expressing HEK293 cells
[6] = substrate: C[C@]12CC[C@@H]3c4ccc(OS(=O)(=O)O)cc4CC[C@H]3[C@@H]1CCC2=O; experiment: as §2

Molecule	Activity [1]	Activity [2] [%]	other results
CC(C)=CCC/C(C)=C/COc1c2ccoc2cc2oc(=O)ccc12 [BERGAMOTTIN]	is not an inhibitor [(-)]	40	–
C/C(=C\COc1c2ccoc2cc2oc(=O)ccc12)CCC(O)C(C)(C)O (stereo not drawn) [DIHYDROXYBERGAMOTTIN]	35%	58	–
O=C1C[C@@H](c2ccc(O)cc2)Oc2cc(O)cc(O)c21 [NARINGENIN]	45%	72	–
C[C@@H]1O[C@@H](O[C@H]2[C@H](Oc3cc(O)c4c(c3)O[C@H](c3ccc(O)cc3)CC4=O)O[C@H](CO)[C@@H](O)[C@@H]2O)[C@H](O)[C@H](O)[C@H]1O [NARINGIN]	70%	61	–
COc1ccc(-c2cc(=O)c3c(OC)c(OC)c(OC)c(OC)c3o2)cc1OC [NOBILETIN]	58%	40	–
C[C@]12CC[C@H](OS(=O)(=O)O)CC1=CC[C@@H]1[C@@H]2CC[C@]2(C)C(=O)CC[C@@H]12 [PRASTERONE SULFURIC ACID]	–	–	Activity [3]: substrate [+]
O=c1c(O)c(-c2ccc(O)c(O)c2)oc2cc(O)cc(O)c12 [QUERCETIN]	is not an inhibitor [(-)]	80	–
COc1ccc(-c2cc(=O)c3c(OC)c(OC)c(OC)c(OC)c3o2)cc1 [TANGERETIN]	25%	89	–
APPLE JUICE	is not an inhibitor [(-)]	–	Activity [4]: 89%
GRAPEFRUIT JUICE	38%	–	Activity [4]: 18%
ORANGE JUICE	50%	–	Activity [4]: 45%
B1	–	–	Km [5]: 6.26 µM; Km [6]: 7.14 µM
